{
  "source": "patent US20080312128A1",
  "about": "“Cellular Biomarker Antioxidant Assay and Uses Thereof” (priority 2005, published 2008)",
  "assay_type_in_all_cases": "cell-based, human",
  "key": {"HO-1": {"tested_on": "HO-1", "assay": "Vitamin C pretreatment, OS-induced HO-1 transcription in RPE cells", "settings": "500 μM H2O2, 1 hour and 4 hours after OS", "description": "RNA was isolated from the cells using a no-rinse method after 1 hour or 4 hours of OS, and compared to no-OS controls. Gene-specific expression was quantified by real-time PCR on an ABI 7700 System. […] Experiments were carried out as described above. Briefly, ARPE19 cells were grown to confluence. […] Following RNA extraction and reverse transcription, real-time PCR was used to assess levels of gene transcripts, as described above. […] The data are normalized to 0 at time 0 in order to minimize the mild variability in starting values for the Ct seen within each experiment."}, "FosB": {"tested_on": "FosB", "assay": "Vitamin C pretreatment, OS-induced FosB transcription in RPE cells", "settings": "for Inhibition of OS-induced FosB transcription: 0.0001-0.2 mM pretreatment", "description": "(§1) RNA was isolated from the cells using a no-rinse method after 1 hour or 4 hours of OS, and compared to no-OS controls. Gene-specific expression was quantified by real-time PCR on an ABI 7700 System. […] Experiments were carried out as described above. Briefly, ARPE19 cells were grown to confluence. […] Following RNA extraction and reverse transcription, real-time PCR was used to assess levels of gene transcripts, as described above. […] The data are normalized to 0 at time 0 in order to minimize the mild variability in starting values for the Ct seen within each experiment. […] OS strongly induces gene expression in our gene panel, and the number of transcripts (amount of induction) is proportional to the level of OS. Therefore, protective effects of an antioxidant such as Vitamin C would be expected to reduce the level of transcripts. A protective effect is reflected in an inverse dose dependent (DD) relationship between the level of antioxidant agent (Vitamin C) and the level of transcripts. Higher pretreatment levels with the antioxidant should lead to a lower level of transcripts after OS (a lower change in Ct). An extremely low dose of Vitamin C (0.0001 mM) was chosen in these studies as a homeopathic dose that is not expected to be protective and should be similar to the positive control. This control was added to ensure that all cultures were treated in the same way, as we have determined that even minimal manipulations can have significant effects upon expression of these genes."}, "cFos": {"tested_on": "cFos", "assay": "Vitamin C pretreatment, OS-induced cFos transcription in RPE cells", "description": "as §1"}, "CRYBA": {"tested_on": "CRYBA", "assay": "Vitamin C pretreatment, OS-induced CRYBA transcription in RPE cells", "settings": "for Inhibition of OS-induced CRYBA transcription: 0.0001-0.2 mM pretreatment", "description": "as §1"}, "ATF3": {"tested_on": "ATF3", "assay": "Vitamin C pretreatment, OS-induced ATF3 transcription in RPE cells", "description": "as §1, with “An extremely low dose of Vitamin C (0.0001 mM) was chosen in these studies as a homeopathic dose that is not expected to be protective and should be similar to the positive control.” left out"}},
  "note": "“Also recorded” adds a separate entry of the source.",
  "data": [
    {"smiles": "O=C1O[C@H]([C@@H](O)CO)C(O)=C1O", "note": "[Vitamin C, L-ascorbic acid]", "values": [
      {"measurement": "Response of HO-1 transcription after OS to pretreatment", "setting": "HO-1", "result": "does not demonstrate any response; also recorded: does not appear to be reduced"},
      {"measurement": "Inhibition of OS-induced FosB transcription", "setting": "FosB; 500 μM H2O2, 1 hour", "result": "modest dose response"},
      {"measurement": "Inhibition of OS-induced FosB transcription", "setting": "FosB; 500 μM H2O2, 4 hours", "result": "the effect is quite clear"},
      {"measurement": "Activation of FosB transcription by OS following pretreatment", "setting": "FosB; summary, 500 μM H2O2", "result": "dose-dependent reduction"},
      {"measurement": "Inhibition of OS-induced cFos transcription", "setting": "cFos; 0.0001-0.2 mM pretreatment, 500 μM H2O2, 1 hour", "result": "modest threshold response"},
      {"measurement": "Inhibition of OS-induced cFos transcription", "setting": "cFos; 0.2 mM dose, 500 μM H2O2, 1 hour", "result": "strong dose-dependence"},
      {"measurement": "Inhibition of OS-induced cFos transcription", "setting": "cFos; 500 μM H2O2, 4 hours", "result": "threshold response for the lower levels of Vitamin C is still seen"},
      {"measurement": "Activation of c-Fos transcription by OS following pretreatment", "setting": "cFos; summary, 500 μM H2O2", "result": "dose-dependent reduction"},
      {"measurement": "Inhibition of OS-induced CRYBA transcription", "setting": "CRYBA; 500 μM H2O2, 1 hour", "result": "DD response is evident"},
      {"measurement": "Inhibition of OS-induced CRYBA transcription", "setting": "CRYBA; 500 μM H2O2, 4 hours", "result": "DD response is more evident"},
      {"measurement": "Activation of CRYBA transcription by OS following pretreatment", "setting": "CRYBA; summary, 500 μM H2O2", "result": "dose-dependent reduction"},
      {"measurement": "Response of OS-induced ATF3 transcription to pretreatment", "setting": "ATF3; 0.0001-0.2 mM pretreatment, 500 μM H2O2", "result": "we do not see a response; also recorded: does not appear to be reduced; also recorded: does not inhibit"},
      {"measurement": "Response of OS-induced ATF3 transcription to pretreatment", "setting": "ATF3; 500 μM H2O2, 4 hours", "result": "slight threshold response may be present"}
    ]}
  ]
}
